Laboratory results reported in US20130281467A1, “NOVEL MICROBICIDES” (SYNGENTA PARTICIPATIONS AG, priority 2010, published 2013).

Legend:
[1] = tested on: Alternaria solani; experiment: Fungicidal activity against Alternaria solani / tomato / leaf disc (early blight); format: in vivo; conditions: foliar, tomato leaf disks, inoculated 2 days after application, compared to untreated, read-out: disease control
Protocol: Fungicidal Activity Against Alternaria solani/Tomato/Leaf Disc (Early Blight) Tomato leaf disks cv. Baby were placed on agar in multiwell plates (24-well format) and sprayed with the formulated test compound diluted in water. The leaf disks were inoculated with a spore suspension of the fungus 2 days after application. The inoculated leaf disks were incubated at 23° C./21° C.

[2] = tested on: Blumeria graminis f. Sp. tritici (Erysiphe graminis f. sp. tritici); experiment: Fungicidal activity against Blumeria graminis f. sp. tritici / wheat / leaf disc preventative (powdery mildew on wheat); format: in vivo; conditions: foliar, wheat leaf segments, inoculated 1 day after application, compared to untreated, read-out: disease control
How it was run: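 Wheat cv. Kanzler leaf segments on agar were sprayed with the formulated compound diluted in water and inoculated with powdery mildew 1 day later. Incubation was at 20 °C and 60% rh: 24 h dark, then 12 h light/12 h dark. Percent disease control versus untreated was scored 6–8 days after application.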

[3] = tested on: Botryotinia fuckeliana (Botrytis cinerea); experiment: Fungicidal activity against Botryotinia fuckeliana (Botrytis cinerea) / liquid culture (gray mould); format: cell-based; conditions: 3-4 days after application, read-out: disease control (inhibition of growth, photometrically)
How it was run: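 Conidia from cryogenic storage were mixed into Vogels broth and added to wells containing compound in DMSO. Plates incubated at 24 °C; growth inhibition read photometrically 3–4 days after application.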

[4] = tested on: Gaeumannomyces graminis; experiment: Fungicidal activity against Gaeumannomyces graminis / liquid culture (take-all of cereals); format: cell-based; conditions: 4-5 days after application, read-out: disease control (inhibition of growth, photometrically)
How it was run: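 Cryostored mycelial fragments in potato dextrose broth added to 96-well plates with test compound in DMSO. Plates kept at 24° C; growth inhibition measured photometrically 4-5 days after application.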

[5] = tested on: Glomerella lagenarium (Colletotrichum lagenarium); experiment: Fungicidal activity against Glomerella lagenarium (Colletotrichum lagenarium) / liquid culture (anthracnose); format: cell-based; conditions: Colletotrichum orbiculare, 3-4 days after application, read-out: disease control (inhibition of growth, photometrically)
How it was run: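 Cryostored conidia mixed into potato dextrose broth were added to test compound in DMSO. Plates were incubated at 24° C. Growth inhibition was measured photometrically 3-4 days after application.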

[6] = tested on: Monographella nivalis (Microdochium nivale); experiment: Fungicidal activity against Monographella nivalis (Microdochium nivale) / liquid culture (foot rot cereals); format: cell-based; conditions: 4-5 days after application, read-out: disease control (inhibition of growth, photometrically)
How it was run: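 Conidia in potato dextrose broth added to microtiter wells holding test compound in DMSO. Incubated at 24° C.; growth inhibition read photometrically 4-5 days after application.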

[7] = tested on: Mycosphaerella arachidis (Cercospora arachidicola); experiment: Fungicidal activity against Mycosphaerella arachidis (Cercospora arachidicola) / liquid culture (early leaf spot); format: cell-based; conditions: 4-5 days after application, read-out: disease control (inhibition of growth, photometrically)
How it was run: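 Cryopreserved conidia in potato dextrose broth added to compound in DMSO in microtiter plates. Incubation at 24 °C; growth inhibition read photometrically 4-5 days after application.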

[8] = tested on: Mycosphaerella graminicola (Septoria tritici); experiment: Fungicidal activity against Mycosphaerella graminicola (Septoria tritici) / liquid culture (Septoria blotch); format: cell-based; conditions: Zymoseptoria tritici, 4-5 days after application, read-out: disease control (inhibition of growth, photometrically)
How it was run: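 Cryo-stored conidia were suspended in potato dextrose broth and added to test compound dispensed from DMSO solution. Plates were held at 24° C., and growth inhibition was measured photometrically 4-5 days after application.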

[9] = tested on: Phaeosphaeria nodorum (Septoria nodorum); experiment: Fungicidal activity against Phaeosphaeria nodorum (Septoria nodorum) / wheat / leaf disc preventative (glume blotch); format: in vivo; conditions: Parastagonospora nodorum, foliar, wheat leaf segments, inoculated 2 days after application, compared to untreated, read-out: disease control
How it was run: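 Wheat cv. Kanzler leaf segments on agar, sprayed with diluted formulated compound, then spore-inoculated 2 days later. Kept at 20 °C, 75% rh, 12 h light/12 h dark; percent disease control versus untreated scored once untreated discs show disease, 5–7 days after application.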

[10] = tested on: Puccinia recondita f. sp. tritici; experiment: Fungicidal activity against Puccinia recondita f. sp. tritici / wheat / leaf disc preventative (brown rust); format: in vivo; conditions: foliar, wheat leaf segments, inoculated 1 day after application, compared to untreated, read-out: disease control
How it was run: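 Wheat leaf segments (cv. Kanzler) on agar sprayed with formulated compound in water, inoculated with spore suspension 1 day later. Incubated at 19° C, 75% rh, 12 h light/12 h dark; percent disease control versus untreated scored 7-9 days after application.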

[11] = tested on: Pyrenophora teres; experiment: Fungicidal activity against Pyrenophora teres / barley / leaf disc preventative (net blotch); format: in vivo; conditions: foliar, barley leaf segments, inoculated 2 days after application, compared to untreated, read-out: disease control
How it was run: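 Barley leaf segments (cv. Hasso) on agar sprayed with formulated compound in water, then spore-inoculated 2 days later. Kept at 20 °C, 65% rh, 12 h light/dark; disease control versus untreated scored 5-7 days after application.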

[12] = tested on: Thanatephorus cucumeris (Rhizoctonia solani); experiment: Fungicidal activity against Thanatephorus cucumeris (Rhizoctonia solani) / liquid culture (foot rot, damping-off); format: cell-based; conditions: 3-4 days after application, read-out: disease control (inhibition of growth, photometrically)
How it was run: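 Fungal mycelia fragments from fresh liquid culture were mixed into potato dextrose broth and added to test compounds supplied in DMSO. Incubation was at 24° C. Growth inhibition was read photometrically 3-4 days after application.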

## Clc1ccccc1Cc1cccc(-c2ncc3c(n2)CCOC3)n1 [Compound 3]
[1]
  pest or weed control at 200 ppm: ≥ 80%
[2]
  pest or weed control at 200 ppm: ≥ 80%
[3]
  inhibition at 200 ppm: ≥ 80%
[4]
  inhibition at 200 ppm: ≥ 80%
[5]
  inhibition at 200 ppm: ≥ 80%
[6]
  inhibition at 200 ppm: ≥ 80%
[7]
  inhibition at 200 ppm: ≥ 80%
[8]
  inhibition at 200 ppm: ≥ 80%
[9]
  pest or weed control at 200 ppm: ≥ 80%
[10]
  pest or weed control at 200 ppm: ≥ 80%
[11]
  pest or weed control at 200 ppm: ≥ 80%
[12]
  inhibition at 200 ppm: ≥ 80%
other
  melting point: 112 to 113 °C

## Clc1ccc(Cc2cccc(-c3ncc4c(n3)CCOC4)n2)cc1 [Compound 5]
[1]
  pest or weed control at 200 ppm: ≥ 80%
[2]
  pest or weed control at 200 ppm: ≥ 80%
[3]
  inhibition at 200 ppm: ≥ 80%
[4]
  inhibition at 200 ppm: ≥ 80%
[5]
  inhibition at 200 ppm: ≥ 80%
[6]
  inhibition at 200 ppm: ≥ 80%
[7]
  inhibition at 200 ppm: ≥ 80%
[8]
  inhibition at 200 ppm: ≥ 80%
[9]
  pest or weed control at 200 ppm: ≥ 80%
[10]
  pest or weed control at 200 ppm: ≥ 80%
[11]
  pest or weed control at 200 ppm: ≥ 80%
[12]
  inhibition at 200 ppm: ≥ 80%
other
  melting point: 104 to 106 °C

## COc1ccccc1Cc1cccc(-c2ncc3c(n2)CCOC3)n1 [Compound 7]
[1]
  pest or weed control at 200 ppm: ≥ 80%
[2]
  pest or weed control at 200 ppm: ≥ 80%
[3]
  inhibition at 200 ppm: ≥ 80%
[4]
  inhibition at 200 ppm: ≥ 80%
[5]
  inhibition at 200 ppm: ≥ 80%
[6]
  inhibition at 200 ppm: ≥ 80%
[7]
  inhibition at 200 ppm: ≥ 80%
[8]
  inhibition at 200 ppm: ≥ 80%
[9]
  pest or weed control at 200 ppm: ≥ 80%
[10]
  pest or weed control at 200 ppm: ≥ 80%
[11]
  pest or weed control at 200 ppm: ≥ 80%
other
  melting point: 135 to 137 °C

## c1ccc(Cc2cccc(-c3ncc4c(n3)CCC3(C4)OCCO3)n2)cc1 [Compound 19]
[1]
  pest or weed control at 200 ppm: ≥ 80%
[2]
  pest or weed control at 200 ppm: ≥ 80%
[3]
  inhibition at 200 ppm: ≥ 80%
[4]
  inhibition at 200 ppm: ≥ 80%
[5]
  inhibition at 200 ppm: ≥ 80%
[6]
  inhibition at 200 ppm: ≥ 80%
[7]
  inhibition at 200 ppm: ≥ 80%
[8]
  inhibition at 200 ppm: ≥ 80%
[9]
  pest or weed control at 200 ppm: ≥ 80%
[10]
  pest or weed control at 200 ppm: ≥ 80%
[11]
  pest or weed control at 200 ppm: ≥ 80%
[12]
  inhibition at 200 ppm: ≥ 80%
other
  melting point: 236 to 237 °C

## COc1ccc(Cc2cccc(-c3ncc4c(n3)CCOC4)n2)cc1 [Compound 21]
[1]
  pest or weed control at 200 ppm: ≥ 80%
[2]
  pest or weed control at 200 ppm: ≥ 80%
[3]
  inhibition at 200 ppm: ≥ 80%
[4]
  inhibition at 200 ppm: ≥ 80%
[5]
  inhibition at 200 ppm: ≥ 80%
[6]
  inhibition at 200 ppm: ≥ 80%
[7]
  inhibition at 200 ppm: ≥ 80%
[8]
  inhibition at 200 ppm: ≥ 80%
[9]
  pest or weed control at 200 ppm: ≥ 80%
[10]
  pest or weed control at 200 ppm: ≥ 80%
[11]
  pest or weed control at 200 ppm: ≥ 80%
[12]
  inhibition at 200 ppm: ≥ 80%
other
  melting point: 216 to 219 °C
